Measurements reported in ChEMBL document CHEMBL5154864, “Design, synthesis and biological evaluation of novel nitric oxide donors with antioxidative activity” (Eur J Med Chem, 2022).
The source made the active and inactive calls. No cut-off for these calls is given here.

Legend:
HUVEC [1] = assay: Effect on intracellular NO production in HUVEC cells assessed as increase in NO level at 5 uM incubated for 24 hrs by inverted microscopic analysis; type: functional, cell-based; details: Homo sapiens
HUVEC [2] = assay: Cytotoxicity against HUVEC cells assessed as reduction in cell viability at 5 uM in absence of TBHP by CCK8 assay; type: toxicity, cell-based; details: human
HUVEC [3] = assay: Cytoprotective activity against TBHP induced oxidative stress in human HUVEC cells assessed as increase in cell viability at 5 uM by CCK8 assay; type: functional, cell-based
HUVEC [4] = assay: Induction of oxidative stress in HUVEC cells assessed as increase in intracellular ROS level at 5 uM incubated for 24 hrs by DCHF staining based inverted microscopic analysis; type: functional, cell-based; details: Homo sapiens
Thoracic aorta = assay: Vasodilation activity in C57BL/6 mouse thoracic aorta assessed as relaxation of phenylephrine-induced contractions at 5 to 50 uM; type: functional, tissue-based; details: dose 5-50 µM
Mus musculus [5] = assay: Antihypertensive activity against C57BL/6 mouse model of Ang II-induced hypertension assessed as reduction in systolic blood pressure at 100 mg/kg/day, ip measured after 4 weeks; type: functional, organism-based; parameters: scale not given: the % may be the effect or the level left
Mus musculus [6] = assay: Antihypertensive activity against C57BL/6 mouse model of Ang II-induced hypertension assessed as reduction in diastolic blood pressure at 100 mg/kg/day, ip measured after 4 weeks; type: functional, organism-based; parameters: scale not given: the % may be the effect or the level left
Mus musculus [7] = assay: Reversal of Ang II infusion-induced endothelial dysfunction in C57BL/6 mouse model assessed as relaxation of ACh-stimulated vasodilation at 100 mg/kg/day, ip measured after 4 weeks; type: functional, organism-based
Mus musculus [8] = assay: Reversal of Ang II infusion-induced smooth muscle dysfunction in C57BL/6 mouse model assessed as relaxation of SNP-stimulated vasodilation at 100 mg/kg/day, ip measured after 4 weeks; type: functional, organism-based
Mus musculus [9] = assay: Antihypertensive activity against C57BL/6 mouse model of Ang II-induced hypertension assessed as reduction in thoracic arterial wall thickness at 100 mg/kg/day, ip measured after 4 weeks; type: functional, organism-based
Mus musculus [10] = assay: Antihypertensive activity against C57BL/6 mouse model of Ang II-induced hypertension assessed as reduction in vascular ROS level at 100 mg/kg/day, ip measured after 4 weeks; type: functional, organism-based

| Compound | Activity (HUVEC [1]) | Activity (HUVEC [3]) | also measured |
| --- | --- | --- | --- |
| CC1(C)N(O)C(c2ccc(C(=O)O)cc2)=[N+]([O-])C1(C)C | Active | – | Activity (HUVEC [2]): Non-Toxic |
| CC1(C)CC(O)CC(C)(C)N1[O] | Active | Active | – |
| O=[N+]([O-])O[C@@H]1CO[C@H]2[C@@H]1OC[C@@H]2O | Active | – | Activity (HUVEC [4]): Active; Activity (Thoracic aorta): Active |
| 2-(2'-bromo-5'-hydroxylphenyl)-4,4,5,5-tetramethylimidazoline-1-oxyl-3-oxide | Active | – | – |
| 2-(2'-bromo-6'-hydroxylphenyl)-4,4,5,5-tetramethylimidazoline-1-oxyl-3-oxide | Active | – | – |
| 2-(2'-hydroxylphenyl)-4,4,5,5-tetramethyl-imidazoline-1-oxyl-3-oxide | Active | – | – |
| 2-(2-hydroxynaphthalen-1-yl)-4,4,5,5-tetramethylimidazoline-1-oxyl-3-oxide | Active | – | – |
| 2-(3'-bromo-4'-hydroxylphenyl)-4,4,5,5-tetramethylimidazoline-1-oxyl-3-oxide | Active | – | – |
| 2-(4-hydroxy-3-methoxyphenyl)-4,4,5,5-tetramethylimidazoline-1-oxyl-3-oxide | Active | Active | – |
| (3S,6R)-6-(nitrooxy)hexahydrofuro[3,2-b]furan-3-yl 2-(2-(4,5-dihydro-4,4,5,5-tetramethyl-3-oxido-1H-imidazole-3-ium-1-oxyl-2-yl)phenoxy)acetate | Active | Active | – |
| (3S,6R)-6-(nitrooxy)hexahydrofuro[3,2-b]furan-3-yl 2-(2-bromo-4-(4,5-dihydro-4,4,5,5-tetramethyl-3-oxido-1H-imidazole-3-ium-1-oxyl-2-yl)phenoxy)acetate | Active | Active | – |
| (3S,6R)-6-(nitrooxy)hexahydrofuro[3,2-b]furan-3-yl 2-(4-bromo-3-(4,5-dihydro-4,4,5,5-tetramethyl-3-oxido-1H-imidazole-3-ium-1-oxyl-2-yl)phenoxy)acetate | Active | Active | Activity (Thoracic aorta): Active |
| (3S,6R)-6-(nitrooxy)hexahydrofuro[3,2-b]furan-3-yl 3-(4,5-dihydro-4,4,5,5-tetramethyl-3-oxido-1H-imidazole-3-ium-1-oxyl-2-yl)benzoate | Active | – | Activity (HUVEC [4]): Active |
| (3S,6R)-6-(nitrooxy)hexahydrofuro[3,2-b]furan-3-yl 4-(4,5-dihydro-4,4,5,5-tetramethyl-3-oxido-1H-imidazole-3-ium-1-oxyl-2-yl)benzoate | Active | – | Activity (HUVEC [4]): Active |
| (3S,6R)-6-(nitrooxy)hexahydrofuro[3,2-b]furan-3-yl (4-(4,5-dihydro-4,4,5,5-tetramethyl-3-oxido-1H-imidazole-3-ium-1-oxyl-2-yl)naphthalen-2-yl)benzoyl)-D-prolinate | Active | Active | Activity (Thoracic aorta): Active; Activity (Mus musculus [5]): 14.8%; Activity (Mus musculus [6]): 14.3%; Activity (Mus musculus [7]): Active; Activity (Mus musculus [8]): Active; Activity (Mus musculus [9]): Active; Activity (Mus musculus [10]): Active |
| (3S,6R)-6-(nitrooxy)hexahydrofuro[3,2-b]furan-3-yl (4-(4,5-dihydro-4,4,5,5-tetramethyl-3-oxido-1H-imidazole-3-ium-1-oxyl-2-yl)naphthalen-2-yl)benzoyl)-L-prolinate | Active | Active | Activity (HUVEC [4]): Active |
